From patent publication US20120021012A1, “NOVEL PHARMACEUTICAL USES FOR NANOPARTICLES” (CENTRE NATIONAL DE LA RECHERCHE SCIENTIFIQUE (C.N.R.S), priority 2008, published 2012)

Tested on: human squamous carcinoma cell line HSC-2
Test: MTT cell survival assay, HSC human cancer cell line
Assay type: cell-based
Settings: paclitaxel applied 72 hours, AT84 and SG lines (FIG. 4)
Protocol: Cell survival was measured using a colorimetric method with 3-(4,5-dimethylthiazol-2-yl)-2,5-diphenyltetrazolium bromide (MTT). This molecule of yellow colour is reduced by mitochondrial dehydrogenase enzymes to a blue-coloured salt. This allows cell viability to be quantified in response to a treatment.
Cell survival was measured before and after exposure to different concentrations of SiC nanoparticles (0.1-0.5-1 mg/mL in a suspension of RPMI medium 10% FCS).
The cells were cultured in 96-well plates in the presence of SiC nanoparticles for 18 hours after which the media were replaced by standard culture media without any nanoparticles (RPMI medium 10% FCS, Sigma).
Cell viability was measured after different times (24, 48 and 72 hours). […]
Cell viability was measured by the difference in optical density at wavelengths of 450 and 504 nm, using a spectrophotometer connected to a computer system (Power Wave, Bio-Tek Instrument Inc.). The measured absorbency is then directly proportional to the number of living cells. The results are expressed as percentage survival measured under the initial conditions before exposure of the cells to the SiC nanoparticles. […]
Cell survival was measured using a colorimetric method with 3-(4,5-diemthylthiazol-2-yl)-2,5-diphenyltetrazolium bromide (MTT) such as described above in Example 1. […]
Cell viability was measured after 72 hours. […]

For `CC(=O)O[C@H]1C(=O)[C@@]2(C)[C@H]([C@H](OC(=O)c3ccccc3)[C@]3(O)C[C@H](OC(=O)[C@H](O)[C@@H](NC(=O)c4ccccc4)c4ccccc4)C(C)=C1C3(C)C)[C@]1(OC(C)=O)CO[C@@H]1C[C@@H]2O` [paclitaxel], the “inhibition percentages of cell survival compared with the SiC nanoparticles” value was “of the same order”.
